Measurements published in US20100056519A1, “COMPOSITION AND METHOD FOR REDUCING PLATELET ACTIVATION AND FOR THE TREATMENT OF THROMBOTIC EVENTS” (priority 2008, published 2010).

Columns and labels:
Type in all cases: cell-based, human
[1] = system: VTNR (CD51/61); test: Unstimulated whole blood flow cytometry, vitronectin receptor; settings: for VTNR (CD51/61), Mean Fluorescence Intensity: unstimulated, Mean ± SD
Description: (§1) The methodology employed was conventional aggregation induced by 5 μM ADP, 1 μg/ml collagen, 10 μM TRAP, whole blood aggregation with 1 μg/ml collagen, Ultegra, and PFA-100 Analyzers, expression of 14 intact, and TRAP-stimulated major receptors by whole blood flow cytometry were utilized to assess platelet activity after preincubation with escalating concentrations of E5555 (20 ng/ml, 50 ng/ml, and 100 ng/ml). The experiments were performed in healthy volunteers, CAD patients treated with ASA, and CAD patients treated with ASA and clopidogrel combination (n=10, for each group).
(§2) An Informed Consent was obtained from all volunteers. Drug users were excluded from data analysis. The study was approved by Quorum Institutional Review Board. All subjects underwent blood sampling after at least 30 minutes of rest and two or more hours of fasting. Blood (28 ml) was drawn between 8 and 10 a.m. in order to avoid any diurnal influence and sampled from an antecubital vein using a 21-gauge butterfly needle containing 3.2% sodium citrate (1:9 volume) after having discarded the first 1.5 ml of free running blood. Four Vacutainer tubes (7.0 ml) were collected for a total of 28 ml of whole blood-citrate mixture from each study participant. Chronologically, blood samples were delivered to the core laboratory facility within 45 minutes after drawing. Then all tubes of blood-citrate mixture were pooled. One portion of pooled blood (5 ml) was kept as an internal control and pretreated with the vehicle. The remaining blood (23 ml) was used for the in vitro exposure to E5555 at concentrations of 20 ng/ml, 50 ng/ml, and 100 ng/ml. […] The platelet aggregation studies, Rapid Analyzers measures, and flow cytometry preparations were initiated within no more than 110 minutes following the blood draw, incubation with the drug, and preparation of the samples.
(§3) Formation of platelet-leukocyte aggregates was assessed by dual labeling with pan-platelet marker (CD151), and then with CD14, the macrophage receptor for endotoxin lipopolysaccharides (PharMingen, and Coulter, San Diego, Calif., USA). The tubes were then covered with aluminum foil and incubated at 37° C. for 40 minutes with gentle rotation. After incubation, samples were immediately analyzed on a Becton Dickinson FACScan flow cytometer. The instrument was set up to measure forward light scatter, and FITC fluorescence. All parameters were collected using four-decade logarithmic amplification. The data was retrieved in list mode files and then analyzed. P selectin was expressed as percent positive cells. Other antigens were expressed as log mean fluorescence intensity.

[2] = system: VTNR (CD51/61); test: TRAP-stimulated whole blood flow cytometry, vitronectin receptor; settings: Mean ± SD
Description: as §1, §2, §3
(§4) For flow cytometry (TRAP-stimulated) all of the above flow cytometry experiments were identically repeated utilizing prestimulation with 10 μmol/L TRAP for 5 minutes at 37° C. To determine statistics, a Paired Sign Test was used to define significance of differences between vehicle and E5555-treated groups. The Mann-Whitney U test was used to analyze nonparametric data. Normally distributed data were expressed as mean±standard error (m±SE), and skewed data as median (range). All P-values were two sided. All analysis was performed using the SPSS v9.0 program (SPSS Inc., Chicago, Ill.).

[3] = system: platelets; test: Whole blood (impedance) aggregation with 1 μg/ml collagen; settings: Mean ± SD
Description: as §1, §2
Whole blood aggregation was determined using a Chronolog device 592A. The whole blood-citrate mixture was diluted 1:1 with 0.5 ml phosphate buffered saline and gently swirled. The sample then was allowed to warm to 37° C. for 5 minutes then transferred to the assay well. The electrode was then placed in the cuvette and the sample was stimulated with 1 μg/ml collagen. The change in electrical impedance was digitally recorded. Each whole blood sample was analyzed utilizing 2 different clinical devices: • (1) a Rapid Platelet-Function Assay (Ultegra®) (Accumetrics, Inc., San Diego, Calif.), which is a rapid platelet-function assay aspirin cartridge test with TRAP used as agonist. Polystyrene beads coated with fibrinogen are placed in a cartridge along with the peptide that activates thrombin receptor. Anticoagulated whole blood was added to the cartridge, and agglutination between platelets and coated beads was recorded. The data mirrors turbidimetric platelet aggregation and presumably reflects platelet glycoprotein IIb/IIIa blockade. Ultegra RPFA-TRAP Assay results were reported as Platelet Activation Units (PAU); and • (2) Platelet-Function Analyzer PFA-100 ™ (Dade Behring, Deerfield Ill.), which is a high shear-inducing analyzer that simulates primary hemostasis after injury to a small vessel under flow conditions. The device provides a constant negative pressure that aspirates whole blood, which comes into contact with the collagen, coated membrane and then passes through the aperture. The time required to obtain occlusion of the aperture is digitally recorded. The time to aperture occlusion (the closure time) is recorded in seconds and is inversely related to the degree of shear-induced platelet activation. We used ADP/Collagen cartridges in the index study. Both PFA-100 and Ultegra assays were performed in duplicate. An electronic quality control test was performed on each instrument daily prior to performing any patient samples.

[4] = system: LAMP-1 (CD107a); test: Unstimulated whole blood flow cytometry, LAMP-1; settings: for LAMP-1 (CD107a), Mean Fluorescence Intensity: unstimulated, Mean ± SD
Description: as §1, §2, §3

[5] = system: CD-40L (CD154); test: TRAP-stimulated whole blood flow cytometry, CD40-ligand; settings: Mean ± SD
Description: as §1, §2, §3, §4

[6] = overall summary, stimulation not stated
[7] = E5555 20 ng/ml, Patients (ASA + C)
[8] = E5555 50 ng/ml, Patients (ASA + C)
[9] = E5555 100 ng/ml, Patients (ASA + C)
[10] = E5555 100 ng/ml, Patients (ASA)

Br.CCOc1cc2c(c(F)c1OCC)C(=N)N(CC(=O)c1cc(N3CCOCC3)c(OC)c(C(C)(C)C)c1)C2 [E5555, 1-(3-tert-butyl-4-methoxy-5-morpholinophenyl)-2-(5,6-diethoxy-7-fluoro-1-imino-1,3-dihydro-2H-isoindol-2-yl)ethanone hydrobromide]
vitronectin receptor expression, effect in words [1, 6]: significant reduction
VTNR (CD51/61), Mean Fluorescence Intensity [1, 7]: 7.9 ± 1.8 MFI
VTNR (CD51/61), Mean Fluorescence Intensity ([1]; E5555 20 ng/ml, Patients (ASA)): 8.4 ± 1.5 MFI
VTNR (CD51/61), Mean Fluorescence Intensity ([1]; E5555 20 ng/ml, Volunteers): 8.7 ± 0.6 MFI
VTNR (CD51/61), Mean Fluorescence Intensity [1, 8]: 8.2 ± 1.6 MFI
VTNR (CD51/61), Mean Fluorescence Intensity ([1]; E5555 50 ng/ml, Patients (ASA)): 8.6 ± 2.1 MFI
VTNR (CD51/61), Mean Fluorescence Intensity ([1]; E5555 50 ng/ml, Volunteers): 9.1 ± 1.0 MFI
VTNR (CD51/61), Mean Fluorescence Intensity [1, 9]: 9.0 ± 2.4 MFI
VTNR (CD51/61), Mean Fluorescence Intensity [1, 10]: 8.3 ± 14 MFI
VTNR (CD51/61), Mean Fluorescence Intensity ([1]; E5555 100 ng/ml, Volunteers): 9.6 ± 1.1 MFI
VTNR (CD51/61), Mean Fluorescence Intensity [2, 7]: 10.2 ± 1.5 MFI
VTNR (CD51/61), Mean Fluorescence Intensity ([2]; E5555 20 ng/ml, Patients (ASA)): 10.8 ± 2.1 MFI
VTNR (CD51/61), Mean Fluorescence Intensity ([2]; E5555 20 ng/ml, Volunteers): 10.4 ± 1.3 MFI
VTNR (CD51/61), Mean Fluorescence Intensity [2, 8]: 10.9 ± 1.6 MFI
VTNR (CD51/61), Mean Fluorescence Intensity ([2]; E5555 50 ng/ml, Patients (ASA)): 10.5 ± 1.3 MFI
VTNR (CD51/61), Mean Fluorescence Intensity ([2]; E5555 50 ng/ml, Volunteers): 10.1 ± 1.7 MFI
VTNR (CD51/61), Mean Fluorescence Intensity [2, 9]: 11.0 ± 2.0 MFI
VTNR (CD51/61), Mean Fluorescence Intensity [2, 10]: 9.9 ± 1.3 MFI
VTNR (CD51/61), Mean Fluorescence Intensity ([2]; E5555 100 ng/ml, Volunteers): 10.7 ± 1.5 MFI
Platelet Aggregation, Whole Blood Collagen 1 μg/mL ([3]; E5555 20 ng/ml, CAD patients treated with ASA + clopidogrel): 13 ± 5 ohms
Platelet Aggregation, Whole Blood Collagen 1 μg/mL ([3]; E5555 20 ng/ml, CAD patients treated with ASA): 11 ± 4 ohms
Platelet Aggregation, Whole Blood Collagen 1 μg/mL ([3]; E5555 20 ng/ml, healthy volunteers): 22 ± 5 ohms
Platelet Aggregation, Whole Blood Collagen 1 μg/mL ([3]; E5555 50 ng/ml, CAD patients treated with ASA + clopidogrel): 12 ± 7 ohms
Platelet Aggregation, Whole Blood Collagen 1 μg/mL ([3]; E5555 50 ng/ml, CAD patients treated with ASA): 14 ± 6 ohms
Platelet Aggregation, Whole Blood Collagen 1 μg/mL ([3]; E5555 50 ng/ml, healthy volunteers): 25 ± 7 ohms
Platelet Aggregation, Whole Blood Collagen 1 μg/mL ([3]; E5555 100 ng/ml, CAD patients treated with ASA + clopidogrel): 14 ± 4 ohms
Platelet Aggregation, Whole Blood Collagen 1 μg/mL ([3]; E5555 100 ng/ml, CAD patients treated with ASA): 12 ± 5 ohms
Platelet Aggregation, Whole Blood Collagen 1 μg/mL ([3]; E5555 100 ng/ml, healthy volunteers): 22 ± 6 ohms
LAMP-1, effect in words [4, 6]: not affected
LAMP-1 (CD107a), Mean Fluorescence Intensity [4, 7]: 4.2 ± 1.6 MFI
LAMP-1 (CD107a), Mean Fluorescence Intensity ([4]; E5555 20 ng/ml, Patients (ASA)): 4.3 ± 1.2 MFI
LAMP-1 (CD107a), Mean Fluorescence Intensity ([4]; E5555 20 ng/ml, Volunteers): 4.7 ± 0.5 MFI
LAMP-1 (CD107a), Mean Fluorescence Intensity [4, 8]: 4.7 ± 1.3 MFI
LAMP-1 (CD107a), Mean Fluorescence Intensity ([4]; E5555 50 ng/ml, Patients (ASA)): 5.0 ± 1.7 MFI
LAMP-1 (CD107a), Mean Fluorescence Intensity ([4]; E5555 50 ng/ml, Volunteers): 4.6 ± 0.6 MFI
LAMP-1 (CD107a), Mean Fluorescence Intensity [4, 9]: 4.8 ± 1.4 MFI
LAMP-1 (CD107a), Mean Fluorescence Intensity [4, 10]: 4.3 ± 1.5 MFI
LAMP-1 (CD107a), Mean Fluorescence Intensity ([4]; E5555 100 ng/ml, Volunteers): 4.4 ± 1.0 MFI
CD-40L (CD154), Mean Fluorescence Intensity [5, 7]: 4.9 ± 0.5 MFI
CD-40L (CD154), Mean Fluorescence Intensity ([5]; E5555 20 ng/ml, Patients (ASA)): 5.2 ± 0.4 MFI
CD-40L (CD154), Mean Fluorescence Intensity ([5]; E5555 20 ng/ml, Volunteers): 6.3 ± 0.6 MFI
CD-40L (CD154), Mean Fluorescence Intensity [5, 8]: 4.0 ± 0.3 MFI
CD-40L (CD154), Mean Fluorescence Intensity ([5]; E5555 50 ng/ml, Patients (ASA)): 4.8 ± 0.5 MFI
CD-40L (CD154), Mean Fluorescence Intensity ([5]; E5555 50 ng/ml, Volunteers): 5.7 ± 0.6 MFI
CD-40L (CD154), Mean Fluorescence Intensity [5, 9]: 4.7 ± 0.5 MFI
CD-40L (CD154), Mean Fluorescence Intensity [5, 10]: 5.0 ± 0.8 MFI
CD-40L (CD154), Mean Fluorescence Intensity ([5]; E5555 100 ng/ml, Volunteers): 5.7 ± 0.4 MFI
